# Measured values reported in patent US9777004B2, “Amino-substituted imidazopyridazines” (Bayer Intellectual Property GmbH, priority 2012, dated 2017).
# What was measured:
# human full-length MKNK1 [1] = target: T1, human full-length MKNK1 (Homo sapiens (Human), UniProt Q9BUB5, T344D); assay: MKNK1 kinase assay (TR-FRET); format: biochemical; conditions: 10 μM ATP, 15 min preincubation
# Description: MKNK1-inhibitory activity of compounds of the present invention was quantified employing the MKNK1 TR-FRET assay as described in the following paragraphs.
# As substrate for the kinase reaction the biotinylated peptide biotin-Ahx-[…] (C-terminus in amide form) was used which can be purchased e.g. form the company Biosyntan (Berlin-Buch, Germany).
# (§1) For the assay 50 nL of a 100fold concentrated solution of the test compound in DMSO was pipetted into a black low volume 384well microtiter plate (Greiner Bio-One, Frickenhausen, Germany), 2 μL of a solution of MKNK1 in aqueous assay buffer [50 mM HEPES pH 7.5, 5 mM magnesium chloride, 1.0 mM dithiothreitol, 0.005% (v/v) Nonidet-P40 (Sigma)] was added and the mixture was incubated for 15 min at 22° C. to allow pre-binding of the test compounds to the enzyme before the start of the kinase reaction. Then the kinase reaction was started by the addition of 3 μL of a solution of adenosine-tri-phosphate (ATP, 16.7 μM=>final conc. in the 5 μL assay volume is 10 μM) and substrate (0.1 μM=>final conc. in the 5 μL assay volume is 0.06 μM) in assay buffer and the resulting mixture was incubated for a reaction time of 45 min at 22° C. The concentration of MKNK1 was adjusted depending of the activity of the enzyme lot and was chosen appropriate to have the assay in the linear range, typical concentrations were in the range of 0.05 μg/mL. The reaction was stopped by the addition of 5 μL of a solution of TR-FRET detection reagents (5 nM streptavidine-XL665 [Cisbio Bioassays, Codolet, France] and 1 nM anti-ribosomal protein S6 (pSer236)-antibody from Invitrogen [#44921G] and 1 nM LANCE EU-W1024 labeled ProteinG [Perkin-Elmer, product no. AD0071]) in an aqueous EDTA-solution (100 mM EDTA, 0.1% (w/v) bovine serum albumin in 50 mM HEPES pH 7.5).
# (§2) The resulting mixture was incubated for 1 h at 22° C. to allow the formation of complex between the phosphorylated biotinylated peptide and the detection reagents. Subsequently the amount of phosphorylated substrate was evaluated by measurement of the resonance energy transfer from the Eu-chelate to the streptavidine-XL. Therefore, the fluorescence emissions at 620 nm and 665 nm after excitation at 350 nm were measured in a TR-FRET reader, e.g. a Rubystar (BMG Labtechnologies, Offenburg, Germany) or a Viewlux (Perkin-Elmer). The ratio of the emissions at 665 nm and at 622 nm was taken as the measure for the amount of phosphorylated substrate.
# human full-length MKNK1 [2] = target: T1, human full-length MKNK1; assay: MKNK1 kinase high ATP assay (TR-FRET); format: biochemical; conditions: 2 mM ATP, 15 min preincubation
# Description: MKNK1 Kinase High ATP Assay
# MKNK1-inhibitory activity at high ATP of compounds of the present invention after their preincubation with MKNK1 was quantified employing the TR-FRET-based MKNK1 high ATP assay as described in the following paragraphs.
# As substrate for the kinase reaction the biotinylated peptide biotin-Ahx-[…] (C-terminus in amide form) was used, which can be purchased e.g. from the company Biosyntan (Berlin-Buch, Germany).
# as §1, with “3.3 mM=>final” for “16.7 μM=>final”, “2 mM)” for “10 μM)”, “30” for “45”, “0.003” for “0.05”
# as §2
# T1 sequence (Q9BUB5 other isoform, or with tags, fused parts or gaps T344D): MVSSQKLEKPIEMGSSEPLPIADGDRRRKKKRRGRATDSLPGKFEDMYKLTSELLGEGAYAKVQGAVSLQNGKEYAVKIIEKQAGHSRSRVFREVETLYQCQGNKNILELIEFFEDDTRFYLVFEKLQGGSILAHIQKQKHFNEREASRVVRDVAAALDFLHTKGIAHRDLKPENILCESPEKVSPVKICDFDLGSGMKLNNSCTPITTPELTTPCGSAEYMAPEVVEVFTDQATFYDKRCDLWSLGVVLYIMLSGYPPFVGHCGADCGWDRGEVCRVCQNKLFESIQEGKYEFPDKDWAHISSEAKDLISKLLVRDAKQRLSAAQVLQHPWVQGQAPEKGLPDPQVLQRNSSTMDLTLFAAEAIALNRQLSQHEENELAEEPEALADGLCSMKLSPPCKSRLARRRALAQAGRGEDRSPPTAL
IC50 (human full-length MKNK1 [1]) [nM],IC50 (human full-length MKNK1 [2]) [nM],Structure (SMILES)
7,18,"c1ccc2oc(-c3cnc4ccc(OCCNCC5CC5)nn34)cc2c1 [Example 6, 2-{[3-(1-Benzofuran-2-yl)imidazo[1,2-b]pyridazin-6-yl]oxy}-N-(cyclopropylmethyl)ethanamine]"
,55,"CNC(C)COc1ccc2ncc(-c3cc4ccccc4o3)n2n1 (stereo not shown) [Example 24, 1-{[3-(1-Benzofuran-2-yl)imidazo[1,2-b]pyridazin-6-yl]oxy}-N-methylpropan-2-amine]"
22,49,"c1ccc2oc(-c3cnc4ccc(O[C@@H]5CCNC5)nn34)cc2c1 [Example 31, 3-(1-Benzofuran-2-yl)-6-[(3R)-pyrrolidin-3-yloxy]imidazo[1,2-b]pyridazine]"
39,91,"Clc1ccc2oc(-c3cnc4ccc(OCC[C@@H]5CCCN5)nn34)cc2c1 [Example 25, 3-(5-Chloro-1-benzofuran-2-yl)-6-{2-[(2S)-pyrrolidin-2-yl]ethoxy}imidazo[1,2-b]pyridazine]"
,11,"COc1cccc2oc(-c3cnc4ccc(OC[C@H]5CNCCO5)nn34)cc12 [Example 2, 3-(4-Methoxy-1-benzofuran-2-yl)-6-[(2R)-morpholin-2-ylmethoxy]imidazo[1,2-b]pyridazine]"
,41,"Clc1ccc2oc(-c3cnc4ccc(OC[C@H]5CNCCO5)nn34)cc2c1 [Example 20, 3-(5-Chloro-1-benzofuran-2-yl)-6-[(2R)-morpholin-2-ylmethoxy]imidazo[1,2-b]pyridazine]"
10,15,"Fc1cccc2oc(-c3cnc4ccc(OC[C@H]5CNCCO5)nn34)cc12 [Example 33, 3-(4-Fluoro-1-benzofuran-2-yl)-6-[(2R)-morpholin-2-ylmethoxy]imidazo[1,2-b]-pyridazine]"
,27,"c1ccc2oc(-c3cnc4ccc(OCC5CNC5)nn34)cc2c1 [Example 14, 6-(Azetidin-3-ylmethoxy)-3-(1-benzofuran-2-yl)imidazo[1,2-b]pyridazine]"
7,20,"CC(C)NCCCOc1ccc2ncc(-c3cc4ccccc4o3)n2n1 [Example 9, 3-{[3-(1-Benzofuran-2-yl)imidazo[1,2-b]pyridazin-6-yl]oxy}-N-(propan-2-yl)propan-1-amine]"
11,25,"CC(C)(C)CNCCOc1ccc2ncc(-c3cc4ccccc4o3)n2n1 [Example 12, N-(2-{[3-(1-Benzofuran-2-yl)imidazo[1,2-b]pyridazin-6-yl]oxy}ethyl)-2,2-dimethylpropan-1-amine]"
12,30,"c1ccc2oc(-c3cnc4ccc(OCC[C@@H]5CCCN5)nn34)cc2c1 [Example 15, 3-(1-Benzofuran-2-yl)-6-{2-[(2S)-pyrrolidin-2-yl]ethoxy}imidazo[1,2-b]pyridazine]"
36,75,"CC(C)NCC(Oc1ccc2ncc(-c3cc4ccccc4o3)n2n1)c1ccccc1 (stereo not shown) [Example 27, Formic acid-N-(2-{[3-(1-benzofuran-2-yl)imidazo[1,2-b]pyridazin-6-yl]oxy}-2-phenylethyl)propan-2-amine (1:1)]"
227,239,"CC(C)(C)CNCC(Oc1ccc2ncc(-c3cc4ccccc4o3)n2n1)c1ccccc1 (stereo not shown) [Example 30, N-(2-{[3-(1-Benzofuran-2-yl)imidazo[1,2-b]pyridazin-6-yl]oxy}-2-phenylethyl)-2,2-dimethylpropan-1-amine]"
24,37,"CC(C)(C)NCCOc1ccc2ncc(-c3cc4ccccc4o3)n2n1 [Example 18, N-(2-{[3-(1-Benzofuran-2-yl)imidazo[1,2-b]pyridazin-6-yl]oxy}ethyl)-2-methylpropan-2-amine]"
,93,"CNCC(C)Oc1ccc2ncc(-c3cc4ccccc4o3)n2n1 (stereo not shown) [Example 26, 2-{[3-(1-Benzofuran-2-yl)imidazo[1,2-b]pyridazin-6-yl]oxy}-N-methylpropan-1-amine]"
98,124,"CNCC(Oc1ccc2ncc(-c3cc4ccccc4o3)n2n1)c1ccccc1 (single isomer, unassigned; (-)) [Example 29, (-)-2-{[3-(1-Benzofuran-2-yl)imidazo[1,2-b]pyridazin-6-yl]oxy}-N-methyl-2-phenylethanamine]"
8,36,"c1ccc2oc(-c3cnc4ccc(OCCNC5CC5)nn34)cc2c1 [Example 17, N-(2-{[3-(1-Benzofuran-2-yl)imidazo[1,2-b]pyridazin-6-yl]oxy}ethyl)cyclopropanamine]"
4,13,"CC(C)(C)CNCCCOc1ccc2ncc(-c3cc4ccccc4o3)n2n1 [Example 4, N-(3-{[3-(1-Benzofuran-2-yl)imidazo[1,2-b]pyridazin-6-yl]oxy}propyl)-2,2-dimethylpropan-1-amine]"
